Structures are written as SMILES.

The values that follow come from patent US20140094462A1, “SONIC HEDGEHOG MODULATORS” (priority 2009, published 2014).

In the assay the target is T1, ShhN protein (Homo sapiens, UniProt Q15465).
T1 construct: auto-cleavage of full length Shh into an active 20 kD N-terminal fragment (ShhN); purchased R&D Systems
T1 sequence (Q15465 24-197 limits assumed, species assumed): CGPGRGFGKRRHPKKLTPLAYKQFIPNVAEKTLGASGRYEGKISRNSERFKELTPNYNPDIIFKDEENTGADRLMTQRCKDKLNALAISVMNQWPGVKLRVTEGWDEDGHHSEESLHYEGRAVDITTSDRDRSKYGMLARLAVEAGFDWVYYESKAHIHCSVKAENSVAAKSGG
In words: Surface Plasmon Resonance (SPR) protein binding assay on immobilized ShhN. Particulars: SPR, Biacore T100, ShhN immobilized on CM4 chip, 25° C., compound 0.78 μM-25 μM; read-out: KD. How it is done: Biacore™ T100 (GE Healthcare, Uppsala, Sweden) was used to perform the experiments described herein. Sensor surface preparation and interaction analyses experiments were performed at 25° C.
Control surfaces were prepared similarly without protein derivatization and were utilized as a reference surfaces for compound binding experiments.
Zero concentration blank buffer cycles were included as negative control samples.
Data analysis was carried out using Biacore T100 evaluation software v1.1.1. […] Solvent correction was then applied as described previously.
In general terms: SPR reads the build-up and loss of mass on a sensor chip optically.
As for `COc1ccccc1[C@@H]1COC(=O)[C@H](CC(=O)OC(C)(C)C)C/C=C/CCC(=O)N1` [FY], the Kd is less than 0.1 µM.
With `O=C(C[C@@H]1C/C=C/CCC(=O)O[C@H](c2ccccc2)CNC1=O)NCc1cccc(Cl)c1` [EO] the figure was greater than 100 µM; with `O=C(C[C@@H]1C/C=C/C[C@H](Cc2ccccc2)C(=O)N[C@H](c2ccccc2)COC1=O)NCc1ccc(Cl)cc1` [Example ED, 2-((3R,6R,11S,E)-6-benzyl-5,12-dioxo-3-phenyl-1-oxa-4-azacyclododec-8-en-11-yl)-N-(4-chlorobenzyl)acetamide], greater than 100 µM.
With `C[C@H]1C/C=C\C[C@@H](CC(=O)NCc2ccc(Cl)cc2)C(=O)OC[C@@H](c2ccccc2)NC1=O` [Example EE, N-(4-chlorobenzyl)-2-((3R,6S,11S,Z)-6-methyl-5,12-dioxo-3-phenyl-1-oxa-4-azacyclododec-8-en-11-yl)acetamide] the figure was greater than 100 µM.
Then `O=C(C[C@@H]1C/C=C/CCC(=O)N[C@H](c2ccccc2)COC1=O)NCC1CCOCC1` [FZ, 2-((3R,11S,E)-5,12-dioxo-3-phenyl-1-oxa-4-azacyclododec-8-en-11-yl)-N-((tetrahydro-2H-pyran-4-yl)methyl)acetamide], with 1 to 100 µM; and `C[C@@H]1C/C=C/C[C@@H](CC(=O)NCc2ccc(Cl)cc2)C(=O)NC[C@@H](c2ccccc2)OC1=O` [Example EA, N-(4-chlorobenzyl)-2-((2R,6S,11R,E)-11-methyl-5,12-dioxo-2-phenyl-1-oxa-4-azacyclododec-8-en-6-yl)acetamide], with 0.1 to 1 µM; and `O=C(C[C@@H]1C/C=C/CCC(=O)N[C@H](Cc2ccccc2)COC1=O)NCc1ccc(Cl)cc1` [FS, 2-((3R,11S,E)-3-benzyl-5,12-dioxo-1-oxa-4-azacyclododec-8-en-11-yl)-N-(4-chlorobenzyl)acetamide], with 1 to 100 µM.
Take `N[C@H]1C/C=C/C[C@@H](CC(=O)NCc2ccc(Cl)cc2)C(=O)NC[C@@H](c2ccccc2)OC1=O` [Example EB, 2-((2R,6S,11S,E)-11-amino-5,12-dioxo-2-phenyl-1-oxa-4-azacyclododec-8-en-6-yl)-N-(4-chlorobenzyl)acetamide]: the Kd lay in the range of 1 to 100 µM.
Then `COc1ccc(CNC(=O)C[C@@H]2C/C=C/CCC(=O)O[C@H](c3ccccc3)CNC2=O)cc1` [EQ], with 1 to 100 µM; and `O=C(C[C@@H]1C/C=C/CCC(=O)O[C@H](c2ccccc2)CN(Cc2ccccc2)C1=O)NCc1ccc(Cl)cc1` [EV], with greater than 100 µM; and `CN1C[C@@H](c2ccccc2)OC(=O)CC/C=C/C[C@@H](CC(=O)NCC2CCOCC2)C1=O` [Example EX, 2-((2R,6S,E)-4-methyl-5,12-dioxo-2-phenyl-1-oxa-4-azacyclododec-8-en-6-yl)-N-((tetrahydro-2H-pyran-4-yl)methyl)acetamide], with 1 to 100 µM.
With `C[C@H]1[C@@H](c2ccccc2)OC(=O)CC[C@H](O)[C@@H](O)C[C@@H](CC(=O)NCc2ccc(Cl)cc2)C(=O)N1C` [Example BB, N-(4-chlorobenzyl)-2-((2R,3S,6S,8S,9S)-8,9-dihydroxy-3,4-dimethyl-5,12-dioxo-2-phenyl-1-oxa-4-azacyclododecan-6-yl)acetamide] the figure was 1 to 100 µM.
On to `CC(C)(C)OC(=O)C[C@@H]1C/C=C/CCC(=O)N[C@H](c2ccc(F)cc2)COC1=O` [FX], for which the Kd is less than 0.1 µM.
Then `CN1CCN(C(=O)C[C@@H]2C/C=C/CCC(=O)O[C@H](c3ccccc3)CNC2=O)CC1` [ET], with 1 to 100 µM; and `COc1ccccc1[C@@H]1COC(=O)[C@H](CC(=O)NCc2ccc(Cl)cc2)C/C=C/CCC(=O)N1` [Example EY, N-(4-chlorobenzyl)-2-((3R,11S,E)-3-(2-methoxyphenyl)-5,12-dioxo-1-oxa-4-azacyclododec-8-en-11-yl)acetamide], with greater than 100 µM; and `O=C1CC/C=C/CCC(=O)OC[C@@H](c2ccccc2)N1` [F], with less than 0.1 µM.
For `O=C(C[C@@H]1C/C=C/CCC(=O)O[C@H](c2ccccc2)CNC1=O)Nc1ccc(Cl)cc1` [EM], the Kd was in the range of 1 to 100 µM.
For `O=C1CC/C=C/C[C@@H](CC(=O)N2CCN(c3ncccn3)CC2)C(=O)NC[C@@H](c2ccccc2)O1` [EU], the Kd fell in the range of 1 to 100 µM.
`CC(C)[C@@H]1COC(=O)[C@H](CC(=O)NCc2ccc(Cl)cc2)C/C=C/CCC(=O)N1` [FQ, N-(4-chlorobenzyl)-2-((3R,11S,E)-3-isopropyl-5,12-dioxo-1-oxa-4-azacyclododec-8-en-11-yl)acetamide]: the Kd lay within 0.1 to 1 µM.
Then `N[C@@H]1C/C=C/CCC(=O)N[C@H](c2ccccc2)COC1=O` [Example AC, (3R,11R,E)-11-amino-3-phenyl-1-oxa-4-azacyclododec-8-ene-5,12-dione], with 1 to 100 µM; and `O=C(C[C@@H]1C/C=C/CCC(=O)N[C@@H]2c3ccccc3C[C@@H]2OC1=O)NCc1ccc(Cl)cc1` [Example BJ, N-(4-chlorobenzyl)-2-((3S,10aR,15aS,E)-2,9-dioxo-2,3,4,7,8,9,10,10a,15,15a-decahydroindeno[2,1-b][1,4]oxaazacyclododecin-3-yl)acetamide], with 1 to 100 µM; and `CN(Cc1ccc(Cl)cc1)C(=O)C[C@@H]1C/C=C/CCC(=O)O[C@H](c2ccccc2)CN(C)C1=O` [EP], with greater than 100 µM.
Then `O=C(C[C@@H]1C/C=C/CCC(=O)O[C@H](c2ccccc2)CNC1=O)NCc1ccccc1` [EN], with 1 to 100 µM; and `O=C(C[C@@H]1C/C=C/CCC(=O)N2CCC[C@H]2COC1=O)NCc1ccc(Cl)cc1` [FT, N-(4-chlorobenzyl)-2-((4S,14aS,E)-3,10-dioxo-3,4,5,8,9,10,12,13,14,14a-decahydro-1H-pyrrolo[2,1-c][1,4]oxaazacyclododecin-4-yl)acetamide], with 1 to 100 µM.
With `C[C@@H]1CCCCCC(=O)OC[C@@H]2CCCN2C1=O` [Example BE, (9R,14aS)-9-methyldecahydro-1H-pyrrolo[2,1-c][1,4]oxaazacyclododecine-3,10-dione] the figure was 1 to 100 µM; with `O=C(C[C@@H]1C/C=C/CCC(=O)O[C@H](c2ccccc2)CNC1=O)NCc1ccc(Cl)c(C(F)(F)F)c1` [EK], greater than 100 µM; with `O=C(C[C@@H]1C/C=C/C[C@H](O)C(=O)O[C@H](c2ccccc2)CNC1=O)NCc1ccc(Cl)cc1` [Example EC, N-(4-chlorobenzyl)-2-((2R,6S,11S,E)-11-hydroxy-5,12-dioxo-2-phenyl-1-oxa-4-azacyclododec-8-en-6-yl)acetamide], less than 0.1 µM.
In the case of `CN1C[C@@H](c2ccccc2)OC(=O)CC/C=C/C[C@@H](Cc2ccc(Cl)cc2)C1=O` [Example BR, (2R,6S,E)-6-(4-chlorobenzyl)-4-methyl-2-phenyl-1-oxa-4-azacyclododec-8-ene-5,12-dione], the Kd was greater than 100 µM.
Then `C[C@H]1[C@@H](c2ccccc2)OC(=O)CC/C=C\C[C@@H](CC(=O)NCc2ccc(Cl)cc2)C(=O)N1C` [Example EZ, N-(4-chlorobenzyl)-2-((2R,3S,6S,Z)-3,4-dimethyl-5,12-dioxo-2-phenyl-1-oxa-4-azacyclododec-8-en-6-yl)acetamide], with greater than 100 µM; and `C[C@@H]1C[C@H](O)[C@@H](O)CCC(=O)N[C@H](c2ccccc2)COC1=O` [Example BU, (3R,8S,9S,11R)-8,9-dihydroxy-11-methyl-3-phenyl-1-oxa-4-azacyclododecane-5,12-dione], with 1 to 100 µM.
Take `O=C(C[C@@H]1C/C=C/CCC(=O)O[C@H](c2ccccc2)CNC1=O)NCCc1ccc(Cl)cc1` [EL]: the dissociation constant (Kd) was greater than 100 µM.
Consider `C[C@@H]1NC(=O)[C@H](CC(=O)NCc2ccc(Cl)cc2)C/C=C/CCC(=O)O[C@@H]1c1ccccc1` [FP, N-(4-chlorobenzyl)-2-((2R,3S,6S,E)-3-methyl-5,12-dioxo-2-phenyl-1-oxa-4-azacyclododec-8-en-6-yl)acetamide], for which the Kd is greater than 100 µM.
With `O=C(C[C@@H]1C/C=C/CCC(=O)O[C@H](c2ccccc2)CNC1=O)NC(c1ccccc1)c1ccccc1` [EW] the figure was greater than 100 µM.
Then `O=C(C[C@@H]1CCCCCC(=O)OC[C@@H]2CCCN2C1=O)NCc1ccc(Cl)cc1` [Example FB, N-(4-chlorobenzyl)-2-((9S,14aS)-3,10-dioxododecahydro-1H-pyrrolo[2,1-c][1,4]oxaazacyclododecin-9-yl)acetamide], with 1 to 100 µM.
With `C[C@H]1[C@@H](c2ccccc2)OC(=O)CC/C=C/C[C@@H](CC(=O)NCCCC(F)(F)F)C(=O)N1C` [Example FA, 2-((2R,3S,6S,E)-3,4-dimethyl-5,12-dioxo-2-phenyl-1-oxa-4-azacyclododec-8-en-6-yl)-N-(4,4,4-trifluorobutyl)acetamide] the figure was greater than 100 µM; with `C[C@@H]1C/C=C/CCC(=O)N[C@@H]2c3ccccc3C[C@@H]2OC1=O` [Example BV, (3R,10aR,15aS,E)-3-methyl-3,4,7,8,10,10a,15,15a-octahydroindeno[2,1-b][1,4]oxaazacyclododecine-2,9-dione], 0.1 to 1 µM; with `CC(C)(C)OC(=O)C[C@@H]1C/C=C/CCC(=O)N[C@@H]2c3ccccc3C[C@@H]2OC1=O` [FW, tert-butyl 2-((3S,10aR,15aS,E)-2,9-dioxo-2,3,4,7,8,9,10,10a,15,15a-decahydroindeno[2,1-b][1,4]oxaazacyclododecin-3-yl)acetate], less than 0.1 µM.
As for `CCCC[C@@H]1COC(=O)[C@H](CC(=O)NCc2ccc(Cl)cc2)C/C=C/CCC(=O)N1` [FR, 2-((3R,11S,E)-3-butyl-5,12-dioxo-1-oxa-4-azacyclododec-8-en-11-yl)-N-(4-chlorobenzyl)acetamide], the Kd was in the range of 1 to 100 µM.
As for `CC(C)c1ccc(CNC(=O)C[C@@H]2C/C=C/CCC(=O)O[C@H](c3ccccc3)CNC2=O)cc1` [EJ], the Kd lay within 1 to 100 µM.
Then `CC(C)(C)OC(=O)C[C@@H]1C/C=C/CCC(=O)N[C@H](c2ccc(Cl)cc2)COC1=O` [FV], with less than 0.1 µM.

Broadly, the Kd is the free concentration of one partner at which half of the binding sites on the other are occupied at equilibrium, for simple one-to-one binding.
